Assay [1] concerns VSV-SARS-CoV-2 (SARS-CoV-2 spike pseudotyped VSV). In kind it is cell-based.
The target in assay [2] is T1, SARS-CoV-2 spike S1 subunit (Severe acute respiratory syndrome coronavirus 2, UniProt P0DTC2).
T1 construct: 50 μL of S1-subunit protein solution (0.1 mg·mL^−1, Genscript Z03501); purchased Genscript Z03501
In kind it is binding.

The next assay has as its target T2, SARS-CoV-2 S1 subunit (Severe acute respiratory syndrome coronavirus 2, UniProt P0DTC2).
T2 construct: 50 μL of S1-subunit protein solution (0.1 mg·mL^−1, Genscript Z03501); purchased Genscript Z03501
Kind of assay: biochemical. The assay is classed as binding.

Assay [3] deals with UV-inactivated SARS-CoV-2 virions. The assay is classed as binding.

This is an account of results in patent publication US20250134921A1, “[…] ACID GLY[…] THEIR USES FOR TREATING INFECTIOUS DISEASES” (priority 2021, published 2025).

The term Kd denotes the constant that tells how readily two partners part at equilibrium. Usually kon stands for a measure of how fast the partners come together.

Each structure is given as a SMILES string.

`CC(=O)N[C@H]1[C@H]([C@H](O)[C@H](O)COC(C)=O)OC(O)(C(=O)O)C[C@@H]1O` (some centres unmarked) [Compound 9-AcSA, 9-O-acetyl-sialic acid]: the “reduction of VSV-SARS-CoV-2 infectivity” value in assay [1] was “did not significantly reduce”.

Regarding `CC(=O)N[C@H]1C([C@H](O)[C@H](O)COC(C)=O)O[C@](O)(C(=O)O)C[C@H]1O` (some centres unmarked) [Compound 9-AcSA, 9-O-acetyl-sialic acid], in assay [2], the “binding probability (BP) in competition assay” value is listed as “significantly lower binding probability”. The compound further came in with a Kd at SARS-CoV-2 S1 subunit of 5.7 ± 5 µM. Further, the kon at SARS-CoV-2 S1 subunit (read-out: association rate (kon)) worked out at 42000 M⁻¹ s⁻¹. Moreover, in assay [3], the “reduction in the binding frequency (BF)” value was 20-30%.
